# Data reported in US10786451B2, “Process for preparing a dry powder formulation comprising an anticholinergic, a corticosteroid and a beta-adrenergic” (CHIESI FARMACEUTICI S.P.A., priority 2015, dated 2020).
# Legend:
# [1] = Aerosol performance by Next Generation Impactor (NGI) from multidose dry powder inhaler; format: physicochemical
# Description: With the term “mid FPF” is defined as the fraction of delivered dose having a particle size comprised between […].
# After aerosolization of 3 doses from the inhaler device, the NGI apparatus was disassembled and the amounts of drug deposited in the stages were recovered by washing with a solvent mixture and then quantified by High-Performance Liquid Chromatography (HPLC)
# [2] = Particle size (volume diameter) by laser diffraction, Malvern apparatus; format: physicochemical; settings: micronized material as used
# Description: The size of the particles active is determined by measuring the characteristic equivalent sphere diameter, known as volume diameter, by laser diffraction. In the reported examples, the volume diameter has been determined using a Malvern apparatus. However, other equivalent apparatus may be used by the skilled person in the art.
# [3] = Uniformity of distribution of the active ingredients in the blend (12 samples, HPLC); format: physicochemical
# Description: In the context of the present application the flow properties were tested by measuring the flow rate through an orifice according to the method described in the European Pharmacopeia (Eur. Ph.) 8.6, 8th Edition, which is incorporated herein by reference in its entirety. […] It is usually determined according to known methods, for instance by taking samples from different parts of the powder and testing the component by HPLC or other equivalent analytical methods. The uniformity of distribution of the active ingredients was evaluated by withdrawing 12 samples from different parts of the blend and evaluated by HPLC.
# [4] = formulations disclosed Table 3 of WO 2015/004243; cited from earlier work
# [5] = Batch CY (Cyclomix), reference formulation per WO 2015/004243
# [6] = Batch MF (mechano-fusion), reference formulation per WO 2015/004243
# [7] = powder formulation of Example 2
# [8] = powder formulation of Example 2, NGI, 3 doses
# [9] = powder formulation of Example 2, between 2.0 and 5.0 micron
# [10] = powder formulation of Example 2, particle size equal to or lower than 5.0 micron
# [11] = powder formulation of Example 3
# [12] = powder formulation of Example 3, NGI
# [13] = powder formulation of Example 3, between 2.0 and 5.0 micron
# [14] = powder formulation of Example 3, particle size equal to or lower than 5.0 micron
smiles,measurement,setting,value
"CCC(=O)OCC(=O)[C@@]1(OC(=O)CC)[C@@H](C)C[C@H]2[C@@H]3CCC4=CC(=O)C=C[C@]4(C)[C@@]3(Cl)[C@@H](O)C[C@@]21C [BDP, beclometasone dipropionate]",Delivered Dose,[1]; [5],90.6 µg
same,Extrafine Particle Fraction <2 μm,[1]; [5],53.9%
same,Extrafine Particle Mass <2 μm,[1]; [5],48.8 µg
same,Fine Particle Fraction,[1]; [5],71.2%
same,Fine Particle Mass,[1]; [5],64.5 µg
same,MMAD,[1]; [5],1.08 μm
same,Mid Fine Particle Mass,[1]; [5],15.7 µg
same,Mid Fine particle Fraction,[1]; [5],17.3%
same,Delivered Dose,[1]; [6],95.7 µg
same,Extrafine Particle Fraction <2 μm,[1]; [6],52.2%
same,Extrafine Particle Mass <2 μm,[1]; [6],50.0 µg
same,Fine Particle Fraction,[1]; [6],69.9%
same,Fine Particle Mass,[1]; [6],66.9 µg
same,MMAD,[1]; [6],1.13 μm
same,Mid Fine Particle Mass,[1]; [6],16.9 µg
same,Mid Fine particle Fraction,[1]; [6],17.7%
same,Extrafine Particle Fraction <1 μm,[1]; [7],28.7%
same,Extrafine Particle Fraction <2 μm,[1]; [7],51.4%
same,Extrafine Particle Mass <1 μm,[1]; [7],27.9 µg
same,Extrafine Particle Mass <2 μm,[1]; [7],50 µg
same,Fine Particle Fraction,[1]; [7],69.4%
same,MMAD,[1]; [7],1.25 μm
same,Delivered Dose,[1]; [8],97.4 µg
same,Mid Fine Particle Mass,[1]; [9],17.6 µg
same,Mid Fine particle Fraction,[1]; [9],18%
same,Fine Particle Mass,[1]; [10],67.6 µg
same,Extrafine Particle Fraction <1 μm,[1]; [11],16.2%
same,Extrafine Particle Fraction <2 μm,[1]; [11],40.3%
same,Extrafine Particle Mass <1 μm,[1]; [11],13.1 µg
same,Extrafine Particle Mass <2 μm,[1]; [11],32.7 µg
same,Fine Particle Fraction,[1]; [11],61.8%
same,MMAD,[1]; [11],1.62 μm
same,Delivered Dose,[1]; [12],80.9 µg
same,Mid Fine Particle Mass,[1]; [13],17.3 µg
same,Mid Fine particle Fraction,[1]; [13],21.4%
same,Fine Particle Mass,[1]; [14],50.0 µg
same,particle size d(v0.1),[2],0.7 micron
same,particle size d(v0.5),[2],1.5 micron
same,particle size d(v0.9),[2],2.8 micron
same,Uniformity of distribution,"[3]; powder formulation of Example 2 (6 μg FF, 100 μg BDP, 12.5 μg GB per 10 mg carrier), mean value, RSD in next column",101.8
same,Uniformity of distribution,"[3]; powder formulation of Example 3 (6 μg FF, 100 μg BDP, 25 μg GB per 10 mg carrier)",100.2
"C[N+]1(C)CCC(OC(=O)C(O)(c2ccccc2)C2CCCC2)C1 (centres unmarked) [GB, Glycopyrronium bromide]",Delivered Dose,[1]; [5],11.6 µg
same,Extrafine Particle Fraction <2 μm,[1]; [5],34.5%
same,Extrafine Particle Mass <2 μm,[1]; [5],4.0 µg
same,Fine Particle Fraction,[1]; [5],53.8%
same,Fine Particle Mass,[1]; [5],6.6 µg
same,MMAD,[1]; [5],1.78 μm
same,Mid Fine Particle Mass,[1]; [5],2.6 µg
same,Mid Fine particle Fraction,[1]; [5],22.4%
same,Delivered Dose,[1]; [6],11.9 µg
same,Extrafine Particle Fraction <2 μm,[1]; [6],33.6%
same,Extrafine Particle Mass <2 μm,[1]; [6],4.0 µg
same,Fine Particle Fraction,[1]; [6],57.2%
same,Fine Particle Mass,[1]; [6],6.4 µg
same,MMAD,[1]; [6],1.75 μm
same,Mid Fine Particle Mass,[1]; [6],2.5 µg
same,Mid Fine particle Fraction,[1]; [6],21.0%
same,Extrafine Particle Fraction <1 μm,[1]; [7],15.4%
same,Extrafine Particle Fraction <2 μm,[1]; [7],37.6%
same,Extrafine Particle Mass <1 μm,[1]; [7],1.8 µg
same,Extrafine Particle Mass <2 μm,[1]; [7],4.39 µg
same,Fine Particle Fraction,[1]; [7],67.2%
same,MMAD,[1]; [7],1.92 μm
same,Delivered Dose,[1]; [8],11.66 µg
same,Mid Fine Particle Mass,[1]; [9],3.46 µg
same,Mid Fine particle Fraction,[1]; [9],29.6%
same,Mid Fine particle Fraction,"[1]; powder formulation of Example 2, between 2.0 and 5.0 micron, listed as glycopyrrolate",about 30%
same,Fine Particle Mass,[1]; [10],7.85 µg
same,Extrafine Particle Fraction <1 μm,[1]; [11],8.7%
same,Extrafine Particle Fraction <2 μm,[1]; [11],27.4%
same,Extrafine Particle Mass <1 μm,[1]; [11],1.75 µg
same,Extrafine Particle Mass <2 μm,[1]; [11],5.49 µg
same,Fine Particle Fraction,[1]; [11],57.1%
same,MMAD,[1]; [11],2.15 μm
same,Delivered Dose,[1]; [12],20.03 µg
same,Mid Fine Particle Mass,[1]; [13],5.94 µg
same,Mid Fine particle Fraction,[1]; [13],29.7%
same,Mid Fine particle Fraction,"[1]; powder formulation of Example 3, between 2.0 and 5.0 micron, listed as glycopyrrolate",about 30%
same,Fine Particle Mass,[1]; [14],11.43 µg
same,mid FPF,[4],about 20%
same,particle size d(v0.1),[2],0.39 micron
same,particle size d(v0.5),[2],1.91 micron
same,particle size d(v0.9),[2],4.77 micron
"O.OC[C@H]1O[C@@H](O[C@H]2[C@H](O)[C@@H](O)[C@@H](O)O[C@@H]2CO)[C@H](O)[C@@H](O)[C@H]1O [Micronized alpha-lactose monohydrate, alpha-lactose monohydrate]",particle size d(v0.1),[2],1.7 micron
same,particle size d(v0.5),[2],4.3 micron
same,particle size d(v0.9),[2],9.8 micron
